Experimental data: US5965569A, “Polycyclic aminopyridine compounds which are acetylcholinesterase inhibitors, process for preparing them and their use” (priority 1995, dated 1999)
Where a name gives a salt, the structure may show the parent alone. Read-outs that look alike come from different tables or passages of the source.

Assays:
acetylcholinesterase = acetylcholinesterase (Homo sapiens, UniProt P22303); test: Acetylcholinesterase-inhibiting capacity, colorimetric method of Ellman et al.; type: biochemical
[1] = administered intravenously in combination with lecithin, cited from earlier work
[2] = Table 8, with respect to tacrine under the same conditions
[3] = Table 8, with respect to tacrine under the same conditions, hydrochloride

Sequence of acetylcholinesterase (P22303 32-614): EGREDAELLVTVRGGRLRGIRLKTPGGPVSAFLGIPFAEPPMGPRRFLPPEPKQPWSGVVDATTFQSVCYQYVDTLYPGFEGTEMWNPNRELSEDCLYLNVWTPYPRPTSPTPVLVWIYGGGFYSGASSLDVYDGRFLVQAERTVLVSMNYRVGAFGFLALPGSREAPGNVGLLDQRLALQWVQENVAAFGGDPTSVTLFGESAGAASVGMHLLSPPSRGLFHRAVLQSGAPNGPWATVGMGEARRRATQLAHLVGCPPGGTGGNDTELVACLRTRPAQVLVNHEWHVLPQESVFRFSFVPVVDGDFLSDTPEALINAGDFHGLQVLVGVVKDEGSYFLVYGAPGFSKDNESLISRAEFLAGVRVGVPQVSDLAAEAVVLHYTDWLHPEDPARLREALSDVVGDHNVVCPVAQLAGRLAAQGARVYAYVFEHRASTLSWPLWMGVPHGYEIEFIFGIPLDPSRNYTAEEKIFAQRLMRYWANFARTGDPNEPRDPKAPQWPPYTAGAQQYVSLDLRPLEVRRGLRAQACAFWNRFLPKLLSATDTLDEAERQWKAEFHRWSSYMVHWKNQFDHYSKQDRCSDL

SMILES | IC50 tacrine/IC50 compound (ratio of the IC50 of tacrine to the IC50 of each compound) (acetylcholinesterase) | IC50 tacrine/IC50 compound (ratio of the IC50 of tacrine to the IC50 of each compound) (acetylcholinesterase; [2]) | other results
CC1=CC2Cc3nc4ccccc4c(N)c3C(C1)C2 (racemic) [Ibw, 12-Amino-6,7,10,11-tetrahydro-9-methyl-7,11-methanocycloocta[b]quinoline] | 2.00 | – | –
CCC1=CC2Cc3nc4ccccc4c(N)c3C(C1)C2 (racemic) [Icw, 12-Amino-9-ethyl-6,7,10,11-tetrahydro-7,11-methanocycloocta[b]quinoline] | – | 3.38 | –
CCC1=CC2Cc3nc4ccccc4c(N)c3C(C1)C2 (single isomer, unassigned; (+)) [(+) --Icw, (+)-12-Amino-6,7,10,11-tetrahydro-9-ethyl-7,11-methanocycloocteno[b]quinoline hydrochloride] | – | – | IC50 tacrine/IC50 compound (ratio of the IC50 of tacrine to the IC50 of each compound) (acetylcholinesterase; [3]): 0.15
CCC1=CC2Cc3nc4ccccc4c(N)c3C(C1)C2 (single isomer, unassigned; (-)) [(-) --Icw, (-)-12-Amino-6,7,10,11-tetrahydro-9-ethyl-7,11-methanocycloocteno[b]quinoline hydrochloride] | – | – | IC50 tacrine/IC50 compound (ratio of the IC50 of tacrine to the IC50 of each compound) (acetylcholinesterase; [3]): 4.80; inhibitory activity against the enzyme acetylcholinesterase (in words) (acetylcholinesterase; qualitative comparison with tacrine or with enantiomer): much more active than their enantiomers
CC1=CC2Cc3nc4ccccc4c(N)c3C(C1)C2 (stereo not drawn) [(+) --Ibw] | 0.40 | – | –
CC1=CC2Cc3nc4ccccc4c(N)c3C(C1)C2 (stereo not drawn) [(-) --Ibw] | 2.80 | – | inhibitory activity against the enzyme acetylcholinesterase (in words) (acetylcholinesterase): much more active than their enantiomers
CC1=CC2Cc3nc4cccc(F)c4c(N)c3C(C1)C2 (stereo not shown) [Ibx, 12-Amino-1-fluoro-6,7,10,11-tetrahydro-9-methyl-7,11-methanocycloocta[b]quinoline] | – | 4.14 | –
CC1=CC2Cc3nc4cc(F)ccc4c(N)c3C(C1)C2 (stereo not shown) [Iby, 12-Amino-3-fluoro-6,7,10,11-tetrahydro-9-methyl-7,11-methanocycloocta[b]quinoline] | – | 15.28 | –
Nc1c2c(nc3ccccc13)CC1C=C(c3ccccc3)CC2C1 (stereo not shown) [Ifw, 12-Amino-9-phenyl-6,7,10,11-tetrahydro-7,11-methanocycloocta[b]quinoline] | – | 1.03 | –
Nc1c2c(nc3ccccc13)CCCC2 [tacrine, 9-amino-1,2,3,4-tetrahydroacridine] | – | – | usefulness in the treatment of Alzheimer's disease (in words) [1]: proves useful in the treatment of Alzheimer's disease; toxicity (in words) ([1]; drawback of tacrine): high toxicity
